Patent US20200181284A1, “EPIGENETIC INHIBITORS FOR SENSITIZING HEMATOLOGIC OR OTHER MALIGNANCIES TO GLUCOCORTICOID THERAPY” (UNIVERSITY OF SOUTHERN CALIFORNIA, priority 2017, published 2020)

Key:
[1] = system: relapsed B-ALL cells (ALL121); experiment: PDX model of ALL: NSG mice engrafted with ALL121, spleen size and human ALL cells in spleen; format: in vivo; conditions: idela monotherapy 50 mg/kg daily, two weeks
Source text: As proof of concept, we tested this combination in a PDX model of ALL.

SUP-B15 [2] = experiment: Cell death assay (PrestoBlue viability, 3 days); format: cell-based, human; conditions: SUP-B15, highest concentration (10 μM), 3 days
Procedure: (§1) Cell death assays: We used PrestoBlue to measure cell viability in response to knockdown and treatment. Cells were grown to a density of 250,000 cell/ml, then dispensed into black tissue culture plates and grown overnight. In the morning, cells were treated. For both CAL-101 (Selleckchem, S2226) and dex (Sigma, D4902), viability was measured after 3 days. As PrestoBlue measures NADPH/NADH metabolites, the balance of which can be affected by GC treatment, we performed frequent cell count spot checks manually by trypan blue exclusion to ensure that fluorescence measurements reflected true viability. Both CAL-101 and dex were dissolved in ethanol, and used 1:1000 in cell culture for a final ethanol concentration of 0.1%. Combination treatments were performed in triplicate in 384 well plates with 20 dilutions of dex from 10^M to 0 and 9 dilutions of CAL-101 from 10^M to 0. Viabilities and EC50 were then calculated using four parameter non-least squares fitting using Prism 6. qPCR of Causative genes: Cells were grown to a density of 1 million cells/ml, then aliquoted into 6 well plates in the afternoon, then grown overnight. Cells were then treated with the drugs and times indicated, at which point cells were spun down at 400 g for 5 minutes, the medium aspirated, and the pellet resuspended in 0.7 ml Qiazol/Trizol and frozen. RNA was then isolated using the miRNAeasy protocol. cDNA was then prepared form 1^g of RNA suing SuperScript3, and qPCR performed using BioRad iQ mix. Primers for qPCR were designed using the IDT web site, then tested for each gene. […] Expression levels for each gene were corrected for primer efficiency, normalized to RPL19, then compared to controls (Pfaffl, 2001).
The optimal signal was determined by incubating cells with 1 ^M dex for 0, 4, 8, and 24 hours. […] Cells were incubated with dex alone, CAL-101 alone, and in combination for 24 hours, then harvested and qPCR performed as described above. Each experiment was performed at least three times, and analyzed using GraphPad (Prism 6). Significant differences between drug and control and between either drug alone and combinations was determined by two sided Student's t-test (P-Value<0.05).
Three cell lines (NALM6, SUP-B15, and RCH-ACV), one resistant patient sample (HM3101), and one relapsed Phlike xenograft (ALL121) were incubated with increasing concentrations of dex or CAL-101 for 3 days. Cell viability was measured by PrestoBlue staining. Curves, values, and errors are based on at least 3 replicates. Bar plot of the EC50, calculated by four-parameter least-squares fitting (Both plotted and calculated in GraphPad Prism).

NALM-6 = experiment: qPCR of effector genes, dex and CAL-101 alone and combined, 24 hours; format: cell-based, human; conditions: NALM-6, CAL-101 alone
Procedure: as §1
(§2) The optimal signal was determined by incubating cells with 1 ^M dex for 0, 4, 8, and 24 hours. […] Each experiment was performed at least three times, and analyzed using GraphPad (Prism 6). Significant differences between drug and control and between either drug alone and combinations was determined by two sided Student's t-test (P-Value<0.05).

RCH-ACV = experiment: as above; format: cell-based, human; conditions: addition of CAL-101 to dex
Procedure: as §1, §2

SUP-B15 [3] = experiment: as above; format: cell-based, human; conditions: SUP-B15, addition of CAL-101 to dex
Procedure: as §1, §2

[4] = system: five B-ALL samples (NALM-6, SUP-B15, RCH-ACV, HM3101, ALL121); experiment: Combination of dex and CAL-101: isoboles and combination index (Calcusyn); format: cell-based, human; conditions: lowest value over the samples; super additive <1, Calcusyn
Procedure: (§3) Cell death assays: We used PrestoBlue to measure cell viability in response to knockdown and treatment. Cells were grown to a density of 250,000 cell/ml, then dispensed into black tissue culture plates and grown overnight. In the morning, cells were treated. For both CAL-101 (Selleckchem, S2226) and dex (Sigma, D4902), viability was measured after 3 days. As PrestoBlue measures NADPH/NADH metabolites, the balance of which can be affected by GC treatment, we performed frequent cell count spot checks manually by trypan blue exclusion to ensure that fluorescence measurements reflected true viability. Both CAL-101 and dex were dissolved in ethanol, and used 1:1000 in cell culture for a final ethanol concentration of 0.1%. Combination treatments were performed in triplicate in 384 well plates with 20 dilutions of dex from 10^M to 0 and 9 dilutions of CAL-101 from 10^M to 0. Viabilities and EC50 were then calculated using four parameter non-least squares fitting using Prism 6. qPCR of Causative genes: Cells were grown to a density of 1 million cells/ml, then aliquoted into 6 well plates in the afternoon, then grown overnight. Cells were then treated with the drugs and times indicated, at which point cells were spun down at 400 g for 5 minutes, the medium aspirated, and the pellet resuspended in 0.7 ml Qiazol/Trizol and frozen. […]

[5] = system: resistant patient sample HM3101; experiment: Cell death assay (PrestoBlue viability, 3 days); format: cell-based, human; conditions: HM3101, highest concentration (10 μM)
Procedure: as §3, with “Combination treatments were performed in triplicate in 384 well plates with 20 dilutions of dex from 10^M to 0 and 9 dilutions of CAL-101 from 10^M to 0.” left out, “overnight.” for “overnight. Cells were then treated with the drugs and times indicated, at which point cells were spun down at 400 g for 5 minutes, the medium aspirated, and the pellet resuspended in 0.7 ml Qiazol/Trizol and frozen.”
The results as shown in FIGS. 14A-14B generally highlight the EC50 of BCP-ALL specimens for dexamethasone and CAL-101. […] Cell viability was measured by PrestoBlue staining. […] Bar plot of the EC50, calculated by four-parameter least-squares fitting (Both plotted and calculated in GraphPad Prism). […]

## CC[C@H](Nc1ncnc2[nH]cnc12)c1nc2cccc(F)c2c(=O)n1-c1ccccc1 [CAL-101]
[1]
  effect on spleens (spleen size): no effect
SUP-B15 [2]
  death caused by CAL-101: < 50%
NALM-6
  TXNIP regulation: no effect
RCH-ACV
  PIK3CD expression: no significant effect
SUP-B15 [3]
  PIK3CD expression: no significant effect
[4]
  combination index of dex and CAL-101: ≥ 0.13
[5]
  death caused by CAL-101: < 50%
